Values quoted from earlier work, collected in patent publication US6384246B1, “Process for the preparation of maltol from plants belonging to the genus Abies” (Council of Scientific & Industrial Research, priority 2001, dated 2002).

Details: in ethylene glycol at ambient temperature

SMILES: Cc1occc(=O)c1O [maltol, 2-methyl-3-hydroxy-4-pyrone]
- solubility of maltol in ethylene glycol: about 4%
